# Tested on: diesel fuel smoke lung injury (model of ARDS and SARS)
# Set-up: species or system rats and rabbits
# Conditions: in vivo, iv
substance,measurement,value
"Sar^9, Met (02) 11-Substance P",6-keto-PGF1α,decreased
same,PGE2,decreased
same,clara cell necrosis,attenuated
same,damage to the alveolar-capillary barrier membrane,attenuates
same,pulmonary alveolar macrophage number,reduced

# From patent US20100267616A1, “ACUTE R[…]” (ImmuneRegen Biosciences, Inc., priority 2003, published 2010)
